PMC8797470, “Disruption of the pentraxin 3/CD44 interaction as an efficient therapy for triple‐negative breast cancers” (Clinical and Translational Medicine, 2022)
Ends that are not written are not given here.

Assays:
MDA-MB-231 cells [1] = assay: Transwell migration and Matrigel invasion assays; format: cell-based, human; settings: with PTX3 treatment, 18 h
Source text: In migration assay, MDA‐MB‐231 cells seeded in 8.0 μm pore polycarbonate membrane inserts (BD Biosciences) in 24‐well plates. In Matrigel invasion assay, inserts were pre‐coated with an appropriate amount of Matrigel first, and the same number of cells seeded on the Matrigel. After cells adhered on the inserts, serum‐free DMEM medium added in the upper wells. Serum‐free medium containing the treatments of TGF‐β1, PTX3, PTX3NA, PTX3/N, PTX3/C, RI37, GI40, AD9, GR9, IgG1κ, PTX3 Ab‐10 or PTX3 Ab‐49 were then mixed into the lower wells of the 24‐well plates. After incubating for 18 h, cells outside the insert were removed by wiping. The inside the inserts were then stained by 4′,6‐diamidino‐2‐phenylindol (DAPI). Fluorescence microscope was used for counting the total number of migrated cells with 200× magnification. Different from the experimental design for the MDA‐MB‐231 cells, the migrated 4T1‐Luc2 cells in the inside of the insert were detected by luciferase activity.

[2] = tested on: mCherry fluorescent-expressing MDA-MB-231 cells; assay: Orthotopic xenograft of mCherry MDA-MB-231 cells in NOD-SCID mice; format: in vivo, mouse; settings: 40 mg/kg peptide every day, intraperitoneal
Source text: For the animal model, MB‐Luc2 cells were mixed with human BCAFs xenografts: 1 × 10^5 MB‐Luc2 were mixed with either 1 × 10^5 BCAFs carrying a control knockdown vector (shCtl‐BCAFs), or 1 × 10^5 BCAFs carrying a CEBPD knockdown vector (shCD‐BCAFs), or 1 × 10^5 BCAFs carrying a PTX3 knockdown vector (shP‐BCAFs). The cell mixtures were inoculated into the mammary fat pads of NOD‐SCID mice. In peptide treatment experiments, NOD‐SCID mice were orthotopically inoculated with 1 × 10^6 mCherry fluorescent‐expressing MDA‐MB‐231 cells into the mammary fat pad. Similarly, 5 × 10^5 mCherry fluorescent‐expressing 4T1 cells were orthotopically inoculated into BALB/c mice in the mammary fat pad. Once tumours reached to the mean of 50 mm^3, the mice were administered 40 mg/kg of peptides RI37, GI40, P2rdAD9 or P12rdGR9 every day by intraperitoneal injection. For paclitaxel treatment, 30 mg/kg of paclitaxel was administered to the experimental mice once a week. […] The images of in vivo bioluminescence and metastasis quantification of the lung and brain were analysed by a Xenogen IVISR Spectrum Noninvasive Quantitative Molecular Imaging System. […] After that, tumour volume was mathematically determined by using the standard formula: […], where l represents the length and w represents the width of the tumour. […] After, the number of nodules on the lung surface was measured. […]

MDA-MB-231 cells [3] = assay: Sphere formation assay; format: cell-based, human; settings: MDA-MB-231 cells, with PTX3 treatment
Protocol: Note that 5 × 10^3 MDA‐MB‐231 cells were seeded in ultralow attachment plates (Corning) per well. Then, cultured in conditional medium containing the treatment of TGF‐β1, PTX3, PTX3NA, RI37, GI40, IgG1κ, PTX3 Ab‐10 or PTX3 Ab‐49 and the DMEM/F12 (Gibco) added with B27 (Invitrogen), 10 ng/ml bFGF (Peprotech) and 20 ng/ml EGF (Abcam). Number of spheres was calculated by microscope after 2 weeks.

PTX3/CD44 interaction = molecular target: T1, PTX3/CD44 interaction (Homo sapiens, UniProt P16070); assay: Competitive binding ELISA of HRP-conjugated PTX3 to immobilised CD44; settings: biotinylated peptide 2 h, then 5 μg/ml HRP-conjugated PTX3 1 h at RT
T1 construct: purchased Sino Biological Inc. (CD44) 12211-H08H
Protocol: Plate wells (9018; Corning Costar) were coated with 10 μg/ml of CD44 (12211‐H08H; Sino Biological Inc.) in PBS (pH 7.2) and then blocking for 1 h with the blocking buffer including 3% milk in PBS. For the stability binding experiments, the PTX3‐devired biotinylated peptides were pre‐incubated in serum for 1, 2, 4 or 6 h. For the binding experiments, the horseradish peroxidase (HRP)‐conjugated recombinant PTX3, PTX3/N, PTX3/C and PTX3NA or PTX3‐devired biotinylated peptides AD9, GR9, P2rdAD9 and P12rdGR9 (32310; LEADGENE) was responded in the well for 2 h. For the peptide of competition experiments, the PTX3‐devired biotinylated peptides RI37 and GI40 were diluted at the indicated concentration in PBS. After 2 h, PBS washed three times and then incubated with 5 μg/ml HRP‐conjugated PTX3 in PBS for 1 h at room temperature (RT). For the antibody competition experiments, Ab‐10 and Ab‐49 were incubated with 5 μg/ml HRP‐conjugated PTX3 in PBS for 2 h at RT. After incubation, the mixtures was responded in the well for 1 h at RT and then PBS washed three times, tetramethyl benzidine (TMB) was used to detect the bound HRP conjugate. After 15 min, the peroxidase reaction was stopped by adding 0.1 M H2SO4. Next, ELISA plate reader was used to detect the optical densities at 450 nm.

T1 sequence (P16070 21-220 limits assumed): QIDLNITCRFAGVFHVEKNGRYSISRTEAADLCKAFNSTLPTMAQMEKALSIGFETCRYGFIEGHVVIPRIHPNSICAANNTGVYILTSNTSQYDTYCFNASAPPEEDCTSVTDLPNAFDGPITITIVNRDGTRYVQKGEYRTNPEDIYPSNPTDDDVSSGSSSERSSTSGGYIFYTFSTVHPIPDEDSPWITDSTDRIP

| binding of PTX3 and CD44 in competition with peptide (PTX3/CD44 interaction) | Substance | PTX3-induced migration and invasion (MDA-MB-231 cells [1]) | tumour growth and metastasis [2] | PTX3-induced sphere-forming ability (stemness) (MDA-MB-231 cells [3]) |
| --- | --- | --- | --- | --- |
| attenuated | GI40: peptide, PTX3 amino acids 320–359 (GGGFDETLAFSGRLTGFNIWDSVLSNEEIRETGGAESCHI; also: biotin, position not given here) | suppressed | suppressed | suppressed |
| attenuated | RI37: peptide, PTX3 amino acids 200–236 (RPMRLESFSACIWVKATDVLNKTILFSYGTKRNPYEI; also: biotin, position not given here) | suppressed | suppressed | suppressed |
